Assay results published in patent US5241047A, “Synthetic peptides and mixtures thereof for detecting HIV antibodies” (BioChem Pharma Inc., priority 1990, dated 1993).
Positions of bridges follow the written chain, without caps; N, C: chain ends. Residues, ends and D or L forms follow the SMILES beside them.

Key:
HIV-1 antibodies [1] = test: ELISA with peptide-coated wells, HIV-1 antibody positive samples (diluted plasma pool, seroconversion samples); format: binding, human
Experimental: (§1) A preferred convenient and classical technique for the determination of antibodies against HIV-1 or HIV-2 using a peptide or a peptide mixture of the present invention is an enzyme-linked immunosorbent assay (ELISA). In this assay, for example, a peptide, peptide mixture or combination of the present invention is adsorbed onto, or covalently coupled to, the wells of a microtiter plate. The wells are then treated with the sera or analyte to be tested. After washing, antihuman IgG or antihuman IgM labeled with peroxidase is added to the wells. The determination of the peroxidase is performed with a corresponding substrate, e.g., with o-phenylene diamine. Without departing from the usefulness of the illustrative assay, the peroxidase can be exchanged by another label, e.g., by a radioactive, fluorescence chemiluminescence or infrared emitting label.
(§2) O.D. Values were obtained at 450 nm and the blank values measured with the sample dilution buffer were not subtracted.
(§3) Samples NEIA-2*2, BBI-1-162 to 168, 87B140, 87L139, 87V103 are all negative for HIV antibodies. Sample LSPQ-S9-1 is an early seroconverter (HIV-1). The series labeled CAP-113 to CAP-120 corresponds to a pool of seven HIV-1 positive plasma samples serially diluted with an HIV-negative plasma. CAP-113 is the pool diluted 50-fold with the HIV-negative plasma; CAP-114 is diluted 100-fold; CAP-115 is diluted 200-fold; etc. Similarly, the series labeled CAP-222 to CAP-230 corresponds to a pool of seven HIV-2 confirmed seropositive plasma samples. CAP-222 is diluted by 50 with an HIV-negative plasma; CAP-223 by 100; etc. Before the assay is done, each sample, including the CAP-series, is further diluted by 50 with the sample dilution buffer. In these tests, the cut-off for seropositivity is defined as the sum of the O.D. value for sample NEIA-2*2 plus 0.100.
Each well of the microtiter plate is saturated with 100 μl of a solution containing a peptide or mixture of peptides (5 μg/ml) and left overnight. The wells are emptied and washed twice with a washing buffer (Tris, 0.043M; NaCl, 0.5M; thimerosal, 0.01% w/v; Tween 20, 0.05% v/v; pH 7.4). The wells are then saturated with 0.35 ml of washing buffer for 1 hr. at 37° C. and washed once with the same buffer. Serum samples to be analyzed are diluted with specimen buffer (washing buffer plus casein, 0.05% w/v). The wells are rinsed with washing buffer prior to the addition of the diluted serum sample (0.1 ml). These are left to incubate for 1 hr. at room temperature. The wells are then emptied, washed twice rapidly and then once for two minutes with washing buffer. […] The wells are then emptied and washed twice rapidly with washing buffer and then five times in which the buffer was in contact with the well 2 minutes per washing. The substrate solution (3,3',5,5'-tetramethylbenzidine, 8 mg per ml of DMSO) is diluted with 100 volumes 0.1M citrate-acetate buffer, pH 5.6 containing 0.1% v/v of 30% H2 O2 and added to each well (0.1 ml per well). After 10 minutes the contents of each well is treated with 0.1 ml 2N H2 SO4 and the optical density read at 450 nm. All determinations are done in duplicate. […]

HIV-2 antibodies = test: ELISA with peptide-coated wells, HIV-2 seropositive plasma pool serially diluted; format: binding, human; conditions: Test 314
Experimental: as §1, §2, §3
(§4) Each well of the microtiter plate is saturated with 100 μl of a solution containing a peptide or mixture of peptides (5 μg/ml) and left overnight. The wells are emptied and washed twice with a washing buffer (Tris, 0.043M; NaCl, 0.5M; thimerosal, 0.01% w/v; Tween 20, 0.05% v/v; pH 7.4). The wells are then saturated with 0.35 ml of washing buffer for 1 hr. at 37° C. and washed once with the same buffer. Serum samples to be analyzed are diluted with specimen buffer (washing buffer plus casein, 0.05% w/v). The wells are rinsed with washing buffer prior to the addition of the diluted serum sample (0.1 ml). These are left to incubate for 1 hr. at room temperature. The wells are then emptied, washed twice rapidly and then once for two minutes with washing buffer. […] The wells are then emptied and washed twice rapidly with washing buffer and then five times in which the buffer was in contact with the well 2 minutes per washing. The substrate solution (3,3',5,5'-tetramethylbenzidine, 8 mg per ml of DMSO) is diluted with 100 volumes 0.1M citrate-acetate buffer, pH 5.6 containing 0.1% v/v of 30% H2 O2 and added to each well (0.1 ml per well). After 10 minutes the contents of each well is treated with 0.1 ml 2N H2 SO4 and the optical density read at 450 nm. All determinations are done in duplicate.
(§5) Peptide cocktails were prepared by mixing together equal volumes of two peptide solutions each at 10 ug/ml. One cocktail used peptides BCH-87c and BCH-202c and the other cocktail was a mixture of BCH-87ck and BCH-202ck. Each cocktail was used to coat two series of plates as described earlier.

HIV antibodies = test: ELISA with peptide-coated wells, samples negative for HIV antibodies or not described; format: binding, human
Experimental: as §1, §2, §3, §4, §5

HIV-1 antibodies [2] = conditions: cited from earlier work

Compound: CC[C@H](C)[C@H](NC(=O)CNC(=O)[C@H](CC(C)C)NC(=O)[C@H](CC(C)C)NC(=O)[C@H](CCC(N)=O)NC(=O)[C@H](CCC(N)=O)NC(=O)[C@H](CC(=O)O)NC(=O)[C@H](CCCCN)NC(=O)[C@H](CC(C)C)NC(=O)[C@H](Cc1ccc(O)cc1)NC(=O)[C@H](CCCNC(=N)N)NC(=O)[C@H](CCC(=O)O)NC(=O)[C@@H](NC(=O)[C@H](C)NC(=O)[C@H](CC(C)C)NC(=O)[C@@H](NC(=O)[C@H](CCCCN)NC(=O)[C@@H](N)CCCCN)[C@@H](C)CC)C(C)C)C(=O)N[C@@H](Cc1c[nH]c2ccccc12)C(=O)NCC(=O)N[C@H]1CSSC[C@@H](C(=O)N[C@H](C(=O)N[C@H](C(=O)N[C@@H](C)C(=O)N[C@H](C(=O)N2CCC[C@H]2C(=O)N[C@@H](Cc2c[nH]c3ccccc23)C(=O)N[C@@H](CC(N)=O)C(=O)N[C@@H](C)C(=O)N[C@@H](CO)C(=O)O)C(C)C)[C@@H](C)O)[C@@H](C)O)NC(=O)[C@H]([C@@H](C)CC)NC(=O)[C@H](CC(C)C)NC(=O)[C@H](CCCCN)NC(=O)CNC(=O)[C@H](CO)NC1=O [BCH-266] (H-KKILAVERYLKDQQLLGIWGCSGKLICTTAVPWNAS-OH; disulfide 21-27)
- O.D. 450 nm (HIV-1 antibodies [1]; Test 314, sample CAP-113 (HIV-1 positive plasma pool diluted 50-fold)): > 2.8
- O.D. 450 nm (HIV-1 antibodies [1]; Test 314, sample CAP-114 (HIV-1 positive pool diluted 100-fold)): > 2.8
- O.D. 450 nm (HIV-1 antibodies [1]; Test 314, sample CAP-115 (HIV-1 positive pool diluted 200-fold)): > 2.8
- O.D. 450 nm (HIV-1 antibodies [1]; Test 314, sample CAP-116 (HIV-1 positive pool, serial dilution)): 2.376
- O.D. 450 nm (HIV-1 antibodies [1]; Test 314, sample CAP-117 (HIV-1 positive pool, serial dilution)): 1.569
- O.D. 450 nm (HIV-1 antibodies [1]; Test 314, sample CAP-118 (HIV-1 positive pool, serial dilution)): 0.934
- O.D. 450 nm (HIV-1 antibodies [1]; Test 314, sample CAP-119 (HIV-1 positive pool, serial dilution)): 0.567
- O.D. 450 nm (HIV-1 antibodies [1]; Test 314, sample CAP-120 (HIV-1 positive pool, serial dilution)): 0.376
- O.D. 450 nm (HIV-1 antibodies [1]; Test 350, sample CAP-10 (progressively higher dilutions)): > 2.8
- O.D. 450 nm (HIV-1 antibodies [1]; Test 350, sample CAP-11 (progressively higher dilutions)): > 2.8
- O.D. 450 nm (HIV-1 antibodies [1]; Test 350, sample CAP-12 (progressively higher dilutions)): > 2.8
- O.D. 450 nm (HIV-1 antibodies [1]; Test 350, sample CAP-13 (progressively higher dilutions)): 2.021
- O.D. 450 nm (HIV-1 antibodies [1]; Test 350, sample CAP-14 (progressively higher dilutions)): 1.248
- O.D. 450 nm (HIV-1 antibodies [1]; Test 350, sample CAP-15 (progressively higher dilutions)): 0.680
- O.D. 450 nm (HIV-1 antibodies [1]; Test 350, sample CAP-16 (progressively higher dilutions)): 0.366
- O.D. 450 nm (HIV-1 antibodies [1]; Test 350, sample CAP-17 (progressively higher dilutions)): 0.198
- O.D. 450 nm (HIV-1 antibodies [1]; Test 350, sample CAP-18 (progressively higher dilutions)): 0.116
- O.D. 450 nm (HIV-1 antibodies [1]; Test 350, sample CAP-19 (progressively higher dilutions)): 0.056
- O.D. 450 nm (HIV-2 antibodies; sample CAP-223 (HIV-2 positive pool diluted by 100)): 0.075
- O.D. 450 nm (HIV-2 antibodies; sample CAP-224 (HIV-2 positive pool, serial dilution)): 0.084
- O.D. 450 nm (HIV-2 antibodies; sample CAP-225 (HIV-2 positive pool, serial dilution)): 0.135
- O.D. 450 nm (HIV-2 antibodies; sample CAP-226 (HIV-2 positive pool, serial dilution)): 0.140
- O.D. 450 nm (HIV-2 antibodies; sample CAP-227 (HIV-2 positive pool, serial dilution)): 0.085
- O.D. 450 nm (HIV-2 antibodies; sample CAP-228 (HIV-2 positive pool, serial dilution)): 0.091
- O.D. 450 nm (HIV-2 antibodies; sample CAP-230 (HIV-2 positive pool, serial dilution)): 0.123
- O.D. 450 nm (HIV antibodies; Test 314, sample BBI-1-162 (negative for HIV antibodies)): 0.028
- O.D. 450 nm (HIV antibodies; Test 314, sample BBI-1-169 (not described)): 0.138
- O.D. 450 nm (HIV antibodies; Test 314, sample BBI-1-172 (not described)): 0.030
- O.D. 450 nm (HIV antibodies; Test 314, sample NEIA-2*2 (negative for HIV antibodies)): 0.069
- O.D. 450 nm (HIV antibodies; Test 350, sample 2-87-L-139 (negative for HIV antibodies)): 0.147
- O.D. 450 nm (HIV antibodies; Test 350, sample 2-87-V-103 (negative for HIV antibodies)): 0.020
- O.D. 450 nm (HIV antibodies; Test 350, sample 89-D-307 (not described)): 0.030
- O.D. 450 nm (HIV antibodies; Test 350, sample NEIA-2*2 (negative for HIV antibodies)): 0.023

Compound: SGKLIC
- immunoreactivity with HIV-1 positive sera (HIV-1 antibodies [2]; Gnann et al. 1987, 22 HIV-1 positive sera tested): not immunoreactive

Compound: SGKLICTTAVPWNAS [short synthetic peptide spanning residues 606 to 620 of gp41 (HIV-1)]
- sensitivity (HIV-1 antibodies [2]; U.S. Ser. No. 120,027, 6 of 57 confirmed positive not detected): 89%
- specificity (HIV-1 antibodies [2]; U.S. Ser. No. 120,027): 63/63
